What was measured:
Mu-type opioid receptor = Mu-type opioid receptor (Cavia porcellus, UniProt P97266); assay: Binding affinity against mu opioid receptor was determined in brain membrane preparations from male Hartley guinea-pigs; format: cell membranes
[1] = biological target: Kappa-type opioid receptor (Cavia porcellus, UniProt P41144); assay: Binding affinity against Opioid receptor kappa 1 was determined in brain membrane preparations from male Hartley guinea-pigs; format: cell membranes
Sequence of Kappa-type opioid receptor (P41144 whole entry): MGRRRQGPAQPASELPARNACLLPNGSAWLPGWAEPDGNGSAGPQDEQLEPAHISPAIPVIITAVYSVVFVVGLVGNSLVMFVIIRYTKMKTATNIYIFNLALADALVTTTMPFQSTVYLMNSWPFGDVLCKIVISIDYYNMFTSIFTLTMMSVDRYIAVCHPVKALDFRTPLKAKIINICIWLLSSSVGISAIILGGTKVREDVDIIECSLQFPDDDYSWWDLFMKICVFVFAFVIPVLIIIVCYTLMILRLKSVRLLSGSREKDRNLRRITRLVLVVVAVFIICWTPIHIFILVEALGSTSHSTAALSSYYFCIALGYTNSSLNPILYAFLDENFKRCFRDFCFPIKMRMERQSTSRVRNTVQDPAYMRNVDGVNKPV

Sequence of Mu-type opioid receptor (P97266 whole entry): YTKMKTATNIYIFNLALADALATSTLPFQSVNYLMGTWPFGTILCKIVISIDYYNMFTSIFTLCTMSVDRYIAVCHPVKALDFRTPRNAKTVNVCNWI

For CC1CN(C)CCC12COc1c(O)cccc12 (racemic; form 1), the Ki (Mu-type opioid receptor) was 0.054 µM and the Ki [1] was 0.177 µM.

For CC1Oc2c(O)cccc2C12CCN(C)CC2 (racemic), the Ki (Mu-type opioid receptor) was 0.124 µM and the Ki [1] was > 100 µM.

Work on CC1CN(C)CCC12COc1c(O)cccc12 (racemic; form 2) yielded a Ki (Mu-type opioid receptor) of 1.02 µM and a Ki [1] of 0.505 µM.

CN1CCC2(CC1)COc1c(O)cccc12 was tested, and the Ki (Mu-type opioid receptor) was 1.65 µM and the Ki [1] was > 100 µM.

In the case of CCC1Oc2c(O)cccc2C12CCN(C)CC2 (racemic), the Ki (Mu-type opioid receptor) is reported as 0.102 µM and the Ki [1] is reported as > 100 µM.

With CCOC(=O)C1(c2ccccc2)CCN(C)CC1 [MEPERIDINE] the Ki [1] was > 100 µM.

Reference: ChEMBL document CHEMBL1130882, “C-alkylated spiro[benzofuran-3(2H),4'-1'-methyl-piperidine-7-ols] as potent opioids: a conformation-activity study” (Bioorg Med Chem Lett, 1998)
